Like-named read-outs stand apart in the source and are kept apart here.
What was measured:
[1] = tested on: human acute monocytic leukemia cell line MV-4-11; test: Assay 2 (Cell Proliferation Assay), ATP quantitation (CellTiter-Glo); assay type: cell-based; settings: MV-4-11 cells, read-out: Assay 2 (EC50, inhibition of cell proliferation)
In short: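 Cells (1.67×10^4/well, 10% FBS medium) incubated ±compound 72 h at 37 °C, 5% CO2; HL-60 served as toxicity control. ATP read by CellTiter-Glo luminescence; % inhibition scaled between DMSO and a potent menin inhibitor at ≥100×LD50.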

[2] = target: T1, menin/MLL binding (biotinylated wild-type or mutated menin and MLL-AF9 fusion protein) (Homo sapiens, UniProt O00255); test: Assay 1 (Binding Assay): AlphaLISA menin/MLL binding; settings: 5 nM biotinylated menin, MLL-AF9-FLAG lysate
T1 construct: biotinylated (1) wild-type menin or (2) mutated menin (described in Nature (2012) Vol. 482, pp. 542-548); fused on or other part: Biotin attached chemically (Sulfo-NHS-Biotin); no fused second protein is printed for menin
T1 sequence (O00255 1-459 limits assumed): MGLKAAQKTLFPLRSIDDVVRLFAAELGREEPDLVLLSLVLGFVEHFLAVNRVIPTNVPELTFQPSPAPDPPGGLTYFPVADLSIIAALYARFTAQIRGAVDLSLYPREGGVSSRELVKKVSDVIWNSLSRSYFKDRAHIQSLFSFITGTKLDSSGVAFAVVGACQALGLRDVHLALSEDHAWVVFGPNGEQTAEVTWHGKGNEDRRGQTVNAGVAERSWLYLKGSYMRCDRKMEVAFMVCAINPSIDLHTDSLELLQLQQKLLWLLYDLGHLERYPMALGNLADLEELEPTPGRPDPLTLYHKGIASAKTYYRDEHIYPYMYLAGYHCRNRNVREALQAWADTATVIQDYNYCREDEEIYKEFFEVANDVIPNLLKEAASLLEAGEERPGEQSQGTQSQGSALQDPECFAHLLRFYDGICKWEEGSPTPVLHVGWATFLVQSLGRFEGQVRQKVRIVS
In short: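 Biotinylated E. coli-expressed menin (wild-type or mutant), 5 nM, incubated 30 min RT with compound and HEK293 lysate of MLL1-1,396–AF9-FLAG in pH 7.4 Tris buffer, 5% DMSO, 1 mM DTT. Anti-FLAG acceptor and streptavidin donor beads added, 60 min RT, AlphaLISA signal read. IC50 from four-parameter fit of % inhibition.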

`CC(C)N(C(=O)c1cc(F)ccc1-n1cc(C2CCCN(C[C@H]3CC[C@H](NS(C)(=O)=O)CC3)C2)c2ccncc21)C(C)C` (stereo partly shown) [Example 87, 5-fluoro-N,N-diisopropyl-2-(3-(1-(((1r,4r)-4-(methylsulfonamido)cyclohexyl)methyl)piperidin-3-yl)-1H-pyrrolo[2,3-c]pyridin-1-yl)benzamide] was tested, and the EC50 ([1]; Homo sapiens, MV4-11, 72 h) was less than 100 nM and the IC50 [2] was less than 100 nM.
Molecule `CC(C)N(C)C(=O)c1cc(F)ccc1-n1cc(C2CCN(Cc3ccc4[nH]c(=O)[nH]c4c3)C2)c2ccncc21` (stereo not shown) [Example 122, 5-fluoro-N-isopropyl-N-methyl-2-(3-(1-((2-oxo-2,3-dihydro-1H-benzo[d]imidazol-5-yl)methyl)pyrrolidin-3-yl)-1H-pyrrolo[2,3-c]pyridin-1-yl)benzamide] has an EC50 ([1]; Homo sapiens, MV4-11, 72 h) of less than 100 nM and an IC50 [2] of less than 100 nM.
Molecule `CC(C)N(C)C(=O)c1cc(F)ccc1-n1cc(C2CCCN(CC3CCCCC3)C2)c2ccncc21` (stereo not shown) [Example 46, 2-(3-(1-(cyclohexylmethyl)piperidin-3-yl)-1H-pyrrolo[2,3-c]pyridin-1-yl)-5-fluoro-N-isopropyl-N-methylbenzamide] has an EC50 ([1]; Homo sapiens, MV4-11, 72 h) of 100 to 1000 nM and an IC50 [2] of less than 100 nM.
With `CC(C)N(C)C(=O)c1cc(F)ccc1-n1cc(C2CCN(Cc3ccc4[nH]c(=O)[nH]c4c3)CC2)c2ccncc21` [Example 5, 5-fluoro-N-isopropyl-N-methyl-2-(3-(1-((2-oxo-2,3-dihydro-1H-benzo[d]imidazol-5-yl)methyl)piperidin-4-yl)-1H-pyrrolo[2,3-c]pyridin-1-yl)benzamide] the EC50 ([1]; Homo sapiens, MV4-11, 72 h) was 100 to 1000 nM and the IC50 [2] was less than 100 nM.
`CC(c1ccccc1)N1CCC(c2cn(-c3ccc(F)cc3C(=O)N(C)C(C)C)c3cnccc23)CC1` (stereo not shown) [Example 30, 5-fluoro-N-isopropyl-N-methyl-2-(3-(1-(1-phenylethyl)piperidin-4-yl)-1H-pyrrolo[2,3-c]pyridin-1-yl)benzamide] gave an EC50 ([1]; Homo sapiens, MV4-11, 72 h) of 100 to 1000 nM and an IC50 [2] of less than 100 nM.
`Cc1c(CN2CCC(n3c(=O)n(-c4ccc(F)cc4)c4cnccc43)CC2)ccc2[nH]c(C#N)cc12` [Example 80, 5-((4-(3-(4-fluorophenyl)-2-oxo-2,3-dihydro-1H-imidazo[4,5-c]pyridin-1-yl)piperidin-1-yl)methyl)-4-methyl-1H-indole-2-carbonitrile] gave an EC50 ([1]; Homo sapiens, MV4-11, 72 h) of no less than 1000 nM and an IC50 [2] of less than 100 nM.
For `Cc1c(CN2CCC(c3cn(-c4ccc(F)cc4C(=O)N(C)C(C)C)c4cncnc34)CC2)ccc2[nH]c(C#N)cc12` [Example 63, 2-(7-(1-((2-cyano-4-methyl-1H-indol-5-yl)methyl)piperidin-4-yl)-5H-pyrrolo[3,2-d]pyrimidin-5-yl)-5-fluoro-N-isopropyl-N-methylbenzamide], the EC50 ([1]; Homo sapiens, MV4-11, 72 h) was less than 100 nM and the IC50 [2] was less than 100 nM.
In the case of `CC(C)N(C)C(=O)c1cc(F)ccc1-n1cc(C2CCCN(Cc3ccccc3)C2)c2ccncc21` (stereo not shown) [Example 45, 2-(3-(1-benzylpiperidin-3-yl)-1H-pyrrolo[2,3-c]pyridin-1-yl)-5-fluoro-N-isopropyl-N-methylbenzamide], the EC50 ([1]; Homo sapiens, MV4-11, 72 h) is reported as 100 to 1000 nM and the IC50 [2] is reported as less than 100 nM.
In the case of `CCN(C(=O)c1cc(F)ccc1-n1cc(C2CCCN(Cc3ccc4[nH]c(=O)[nH]c4c3)C2)c2ccncc21)C(C)C` (single isomer, unassigned) [Example 47B], the EC50 ([1]; 72 h) is reported as less than 100 nM and the IC50 [2] is reported as less than 100 nM.
Work on `CC(C)N(C)C(=O)c1cc(F)ccc1-n1cc([C@H]2CC[C@@H](N3CCCC3)CC2)c2ccncc21` [Example 56, 5-fluoro-N-isopropyl-N-methyl-2-(3-(cis-4-(pyrrolidin-1-yl)cyclohexyl)-1H-pyrrolo[2,3-c]pyridin-1-yl)benzamide] yielded an EC50 ([1]; Homo sapiens, MV4-11, 72 h) of 100 to 1000 nM and an IC50 [2] of less than 100 nM.
`CC(C)N(C)C(=O)c1cc(F)ccc1-n1c(=O)n(C2CCN(CC[C@H]3CC[C@H](NS(C)(=O)=O)CC3)CC2)c2ccncc21` [Example 78, 5-fluoro-N-isopropyl-N-methyl-2-(1-(1-(2-((1r,4r)-4-(methylsulfonamido)cyclohexyl)ethyl)piperidin-4-yl)-2-oxo-1,2-dihydro-3H-imidazo[4,5-c]pyridin-3-yl)benzamide] gave an EC50 ([1]; Homo sapiens, MV4-11, 72 h) of 100 to 1000 nM and an IC50 [2] of less than 100 nM.
Work on `CC(C)N(C(=O)c1cc(F)ccc1-n1cc(C2CCN(Cc3ccc4oc(=O)[nH]c4c3)C2)c2ccncc21)C(C)C` (stereo not shown) [Example 140, 5-fluoro-N,N-diisopropyl-2-(3-(1-((2-oxo-2,3-dihydrobenzo[d]oxazol-5-yl)methyl)pyrrolidin-3-yl)-1H-pyrrolo[2,3-c]pyridin-1-yl)benzamide] yielded an EC50 ([1]; Homo sapiens, MV4-11, 72 h) of less than 100 nM and an IC50 [2] of less than 100 nM.
`CC(C)N(C)C(=O)c1cc(F)ccc1-n1cc([C@H]2CC[C@H](N)CC2)c2ccncc21` [Example 57, 2-(3-(trans-4-aminocyclohexyl)-1H-pyrrolo[2,3-c]pyridin-1-yl)-5-fluoro-N-isopropyl-N-methylbenzamide] gave an EC50 ([1]; Homo sapiens, MV4-11, 72 h) of no less than 1000 nM and an IC50 [2] of less than 100 nM.
`CC(C)N(C)C(=O)c1cc(F)ccc1-n1cc(C2CCCN(Cc3ccc4c(c3)[nH]c(=O)n4CCO)C2)c2ccncc21` (stereo not shown) [Example 44, 5-fluoro-2-(3-(1-((1-(2-hydroxyethyl)-2-oxo-2,3-dihydro-1H-benzo[d]imidazol-5-yl)methyl)piperidin-3-yl)-1H-pyrrolo[2,3-c]pyridin-1-yl)-N-isopropyl-N-methylbenzamide] showed an EC50 ([1]; 72 h) of less than 100 nM and an IC50 [2] of less than 100 nM.
For `CC(C)N(C)C(=O)c1cc(F)ccc1-n1cc([C@H]2CC[C@H](N3CCCC(O)C3)CC2)c2ccncc21` (stereo partly drawn) [Example 112, 5-fluoro-2-(3-(trans-4-(3-hydroxypiperidin-1-yl)cyclohexyl)-1H-pyrrolo[2,3-c]pyridin-1-yl)-N-isopropyl-N-methylbenzamide], the EC50 ([1]; Homo sapiens, MV4-11, 72 h) was no less than 1000 nM and the IC50 [2] was less than 100 nM.
For `CC(C)N(C)C(=O)c1cc(F)ccc1-n1cc(C2CCN(Cc3ccc4[nH]c(C#N)cc4c3)CC2)c2ccncc21` [Example 7, 2-(3-(1-((2-cyano-1H-indol-5-yl)methyl)piperidin-4-yl)-1H-pyrrolo[2,3-c]pyridin-1-yl)-5-fluoro-N-isopropyl-N-methylbenzamide], the EC50 ([1]; Homo sapiens, MV4-11, 72 h) was less than 100 nM and the IC50 [2] was less than 100 nM.
`CC(C)N(C)C(=O)c1cc(F)ccc1-n1cc(C2CCCN(Cc3ccc4[nH]c(=O)[nH]c4c3)C2)c2ccncc21` (single isomer, unassigned) [Example 43A, 5-fluoro-N-isopropyl-N-methyl-2-(3-(1-((2-oxo-2,3-dihydro-1H-benzo[d]imidazol-5-yl)methyl)piperidin-3-yl)-1H-pyrrolo[2,3-c]pyridin-1-yl)benzamide] was tested, and the EC50 ([1]; Homo sapiens, MV4-11, 72 h) was less than 100 nM and the IC50 [2] was less than 100 nM.
`CC(C)N(C)C(=O)c1cc(F)ccc1-n1cc(C2CCN(CC3CC(F)(F)C3)CC2)c2ccncc21` [Example 16, 2-(3-(1-((3,3-difluorocyclobutyl)methyl)piperidin-4-yl)-1H-pyrrolo[2,3-c]pyridin-1-l)-5-fluoro-N-isopropyl-N-methylbenzamide] showed an EC50 ([1]; Homo sapiens, MV4-11, 72 h) of 100 to 1000 nM and an IC50 [2] of less than 100 nM.
With `CC(C)N(C)C(=O)c1cc(F)ccc1-n1cc(C2CCC(NCc3ccc4[nH]c(=O)[nH]c4c3)CC2)c2ccncc21` (single isomer, unassigned) [Example 60A, 5-fluoro-N-isopropyl-N-methyl-2-(3-(4-(((2-oxo-2,3-dihydro-1H-benzo[d]imidazol-5-yl)methyl)amino)cyclohexyl)-1H-pyrrolo[2,3-c]pyridin-1-yl)benzamide] the EC50 ([1]; 72 h) was no less than 1000 nM and the IC50 [2] was less than 100 nM.
For `CC(C)N(C)C(=O)c1cc(F)ccc1-n1cc([C@H]2CC[C@@H](N3CCC(O)CC3)CC2)c2ccncc21` [Example 109, 5-fluoro-2-(3-(cis-4-(4-hydroxypiperidin-1-yl)cyclohexyl)-1H-pyrrolo[2,3-c]pyridin-1-yl)-N-isopropyl-N-methylbenzamide], the EC50 ([1]; Homo sapiens, MV4-11, 72 h) was 100 to 1000 nM and the IC50 [2] was less than 100 nM.
In the case of `CC(C)N(C)C(=O)c1cc(F)ccc1-n1cc(C2CCN(CCN3CCC(NS(C)(=O)=O)CC3)CC2)c2ccncc21` [Example 93, 5-fluoro-N-isopropyl-N-methyl-2-(3-(1-(2-(4-(methylsulfonamido)piperidin-1-yl)ethyl)piperidin-4-yl)-1H-pyrrolo[2,3-c]pyridin-1-yl)benzamide], the EC50 ([1]; Homo sapiens, MV4-11, 72 h) is reported as 100 to 1000 nM and the IC50 [2] is reported as less than 100 nM.
`CC(C)N(C)C(=O)c1cc(F)ccc1-n1cc(C2CCN(CCC3CCN(S(C)(=O)=O)CC3)CC2)c2ccncc21` [Example 28, 5-fluoro-N-isopropyl-N-methyl-2-(3-(1-(2-(1-(methylsulfonyl)piperidin-4-yl)ethyl)piperidin-4-yl)-1H-pyrrolo[2,3-c]pyridin-1-yl)benzamide] was tested, and the EC50 ([1]; Homo sapiens, MV4-11, 72 h) was 100 to 1000 nM and the IC50 [2] was less than 100 nM.
In the case of `CC(C)N(C(=O)c1cc(F)ccc1-n1cc(C2CN(C[C@H]3CC[C@H](NS(C)(=O)=O)CC3)C2)c2ccncc21)C(C)C` [Example 138, 5-fluoro-N,N-diisopropyl-2-(3-(1-(((1r,4r)-4-(methylsulfonamido)cyclohexyl)methyl)azetidin-3-yl)-1H-pyrrolo[2,3-c]pyridin-1-yl)benzamide], the EC50 ([1]; Homo sapiens, MV4-11, 72 h) is reported as 100 to 1000 nM and the IC50 [2] is reported as less than 100 nM.

From patent US10899758B2, “Inhibitors of the menin-MLL interaction” (Vitae Pharmaceuticals, LLC, priority 2016, dated 2021)
